# Data published in patent publication US20140275063A1, “NEW ENZYME INHIBITOR COMPOUNDS” (PROXIMAGEN LIMITED, priority 2011, published 2014).
# Where a name gives a salt, the structure may show the parent alone.
# Target: T1, human SSAO (Homo sapiens, UniProt Q16853)
# T1 construct: made in house
# T1 sequence (Q16853 29-763 limits assumed): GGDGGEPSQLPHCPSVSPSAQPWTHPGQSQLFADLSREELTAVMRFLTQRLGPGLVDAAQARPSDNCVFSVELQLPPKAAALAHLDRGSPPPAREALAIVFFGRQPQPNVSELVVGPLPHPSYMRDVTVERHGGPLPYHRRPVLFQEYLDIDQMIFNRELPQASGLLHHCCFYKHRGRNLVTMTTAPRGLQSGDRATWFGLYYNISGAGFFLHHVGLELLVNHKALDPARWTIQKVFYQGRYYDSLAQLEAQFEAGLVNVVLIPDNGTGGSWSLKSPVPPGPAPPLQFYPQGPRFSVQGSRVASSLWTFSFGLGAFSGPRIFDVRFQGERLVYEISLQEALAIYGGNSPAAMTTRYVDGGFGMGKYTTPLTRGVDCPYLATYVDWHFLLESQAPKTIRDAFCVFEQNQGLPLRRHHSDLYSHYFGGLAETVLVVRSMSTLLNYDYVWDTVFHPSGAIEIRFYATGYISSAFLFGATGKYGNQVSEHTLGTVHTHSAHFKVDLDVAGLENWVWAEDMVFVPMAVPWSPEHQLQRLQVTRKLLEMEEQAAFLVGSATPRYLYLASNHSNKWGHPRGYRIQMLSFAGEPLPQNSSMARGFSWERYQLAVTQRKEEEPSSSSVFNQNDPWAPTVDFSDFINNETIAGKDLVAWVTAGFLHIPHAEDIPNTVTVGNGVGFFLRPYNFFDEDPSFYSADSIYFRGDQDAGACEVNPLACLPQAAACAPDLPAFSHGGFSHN
# Test: SSAO inhibitory activity (HRP-coupled hydrogen peroxide detection or 14C-benzaldehyde detection, benzylamine substrate)
# Assay type: biochemical
# Details: purified recombinantly expressed human SSAO, benzylamine as substrate, RT
# Protocol: All primary assays were performed at RT. with purified recombinantly expressed human SSAO. Enzyme was prepared essentially as described in Öhman et al. (Protein Expression and Purification 46 (2006) 321-331). In addition, secondary- and selectivity assays were performed using SSAO prepared from various tissues or purified rat recombinant SSAO. The enzyme activity was assayed with benzylamine as substrate by measuring either benzaldehyde production, using ^14C-labeled substrate, or by utilizing the production of hydrogen peroxide in a horseradish peroxidase (HRP) coupled reaction. Briefly, test compounds were dissolved in dimethyl sulfoxide (DMSO) to a concentration of 10 mM. Dose-response measurements were assayed by either creating 1:10 serial dilutions in DMSO to produce a 7 point curve or by making 1:3 serial dilutions in DMSO to produce 11 point curves. The top concentrations were adjusted depending on the potency of the compounds and subsequent dilution in reaction buffer yielded a final DMSO concentration ≦2%.
# In a horseradish peroxidase (HRP) coupled reaction, hydrogen peroxide oxidation of 10-acetyl-3,7-dihydroxyphenoxazine produced resorufin, which is a highly fluorescent compound (Zhout and Panchuk-Voloshina. Analytical Biochemistry 253 (1997) 169-174; Amplex® Red Hydrogen Peroxideperoxidase Assay kit, Invitrogen A22188). Enzyme and compounds in 50 mM sodium phosphate, pH 7.4 were set to pre-incubate in flat-bottomed microtiter plates for approximately 15 minutes before initiating the reaction by addition of a mixture of HRP, benzylamine and Amplex reagent. Benzylamine concentration was fixed at a concentration corresponding to the Michaelis constant, determined using standard procedures. Fluorescence intensity was then measured at several time points during 1-2 hours, exciting at 544 nm and reading the emission at 590 nm. For the human SSAO assay final concentrations of the reagents in the assay wells were: SSAO enzyme 1 μg/ml, benzylamine 100 μM, Amplex reagent 20 μM, HRP 0.1 U/mL and varying concentrations of test compound. The inhibition was measured as % decrease of the signal compared to a control without inhibitor (only diluted DMSO). The background signal from a sample containing no SSAO enzyme was subtracted from all data points. Data was fitted to a four parameter logistic model and IC50 values were calculated using the Graph Pad Prism 4 or XLfit 4 programs.
# SSAO activity was assayed using 14C-labeled benzylamine and analysed by measuring radioactive benzaldehyde. In a white 96-well optiplate (Packard), 20 μL of diluted test compound was pre-incubated at RT. with 20 μL SSAO enzyme for approximately 15 minutes with continuous agitation. All dilutions were made with PBS. The reaction was initiated by adding 20 μL of the benzylamine substrate solution containing [7-14C] Benzylamine hydrochloride (CFA589, GE Healthcare). The plate was incubated for 1 hour as above after which the reaction was stopped by acidification (10 μL 1 M HCl). Then 90 μL Micro Scint-E solution (Perkin-Elmer) was added to each well and the plate was continuously mixed for 15 minutes. Phase separation occurred instantly and activity was read in a Topcount scintillation counter (Perkin-Elmer). In the final reaction well, the human recombinant SSAO concentration was 10 μg/ml. In order to optimize sensitivity, the substrate concentration was decreased as compared to the HRP coupled assay in order to get a higher fraction of radioactive product. In the human SSAO assay, benzylamine concentration was 40 μM (0.2 μCi/mL). Data was analysed as above.
row,IC50 [nM],Structure (SMILES)
1,< 100,"Clc1ccc(-n2nc(N3CCC(CN4CCOCC4)CC3)c3ccncc32)cc1 [Compound 48, 4-({1-[1-(4-Chlorophenyl)-1H-pyrazolo[3,4-c]pyridin-3-yl]piperidin-4-yl}methyl) morpholine dihydrochloride]"
2,100 to 500,"Cc1ccc(-n2nc(N3CCOC(CNCCN)C3)c3ccncc32)cc1 (stereo not shown) [Compound 33, (2-Aminoethyl)({4-[1-(4-methylphenyl)-1H-pyrazolo[3,4-c]pyridin-3-yl]morpholin-2-yl}methyl)amine trihydrochloride]"
3,< 100,"NC(=O)NCC1CN(c2nn(-c3ccc(Cl)cc3)c3cnccc23)CCO1 (stereo not shown) [Compound 59, ({4-[1-(4-Chlorophenyl)-1H-pyrazolo[3,4-c]pyridin-3-yl]morpholin-2-yl}methyl)urea]"
4,< 100,"NC(=O)CN1CCC(CNC(=O)N2CCC(c3cn(-c4ccc(Cl)cc4)c4cnccc34)CC2)CC1 [Compound 14, N-{[1-(Carbamoyl-methyl)piperidin-4-yl]methyl}-4-[1-(4-chlorophenyl)-1H-pyrrolo[2,3-c]pyridin-3-yl] piperidine-1-carboxamide; formic acid]"
5,< 100,"CC(=O)NCCCNC(=O)N1CCC(c2cn(-c3ccc(Cl)cc3)c3cnccc23)CC1 [Compound 29, N-[3-({4-[1-(4-Chlorophenyl)-1H-pyrrolo[2,3-c]pyridin-3-yl]piperidin-1-yl}carbonylamino)propyl]acetamide]"
6,< 100,"CN1CCC(CNC(=O)N2CCC(c3cn(-c4ccc(Cl)cc4)c4cnccc34)CC2)CC1 [Compound 11, 4-[1-(4-Chlorophenyl)-1H-pyrrolo[2,3-c]pyridin-3-yl]-N-[(1-methylpiperidin-4-yl)methyl] piperidine-1-carboxamide]"
7,< 100,"O=C(NCCN1CCNCC1)N1CCC(c2cn(-c3ccc(Cl)cc3)c3cnccc23)CC1 [Compound 23, 4-[1-(4-Chlorophenyl)-1H-pyrrolo[2,3-c]pyridin-3-yl]-N-[2-(piperazin-1-yl)ethyl] piperidine-1-carboxamide]"

# More lines, now with the values behind:
row,Structure (SMILES),IC50 [nM]
1,"O=C(O)CC1COCCN1c1nn(-c2ccc(Cl)cc2)c2cnccc12 (stereo not shown) [Compound 53, 2-{4-[1-(4-Chlorophenyl)-1H-pyrazolo[3,4-c]pyridin-3-yl]morpholin-3-yl}acetic acid hydrochloride]",500 to 2500
2,"Clc1ccc(-n2nc(N3CCOC(CN4CCNCC4)C3)c3ccncc32)cc1 (stereo not shown) [Compound 36, 4-[1-(4-Chlorophenyl)-1H-pyrazolo[3,4-c]pyridin-3-yl]-2-(piperazin-1-ylmethyl) morpholine trihydrochloride]",< 100
3,"CN1CCN(C)C(CNC(=O)N2CCC(c3cn(-c4ccc(Cl)cc4)c4cnccc34)CC2)C1 (stereo not shown) [Compound 21, 4-[1-(4-Chlorophenyl)-1H-pyrrolo[2,3-c]pyridin-3-yl]-N-[(1,4-dimethyl-piperazin-2-yl)methyl] piperidine-1-carboxamide]",< 100
4,"NCCCNC(=O)N1CCN(CC2CN(c3nn(-c4ccc(Cl)cc4)c4cnccc34)CCO2)CC1 (stereo not shown) [Compound 38, N-(3-Aminopropyl)-4-({4-[1-(4-chlorophenyl)-1H-pyrazolo[3,4-c]pyridin-3-yl]morpholin-2-yl}methyl)piperazine-1-carboxamide tri hydrochloride]",100 to 500
5,"CN1CCC(CNC(=O)N2CCN(c3nn(-c4ccc(Cl)cc4)c4cnccc34)CC2)CC1 [Compound 51, 4-[1-(4-Chlorophenyl)-1H-pyrazolo[3,4-c]pyridin-3-yl]-N-[(1-methylpiperidin-4-yl)methyl]piperazine-1-carboxamide]",< 100
6,"O=C(NCC1CCNCC1)N1CCC(c2cn(-c3ccc(Cl)cc3)c3cnccc23)CC1 [Compound 6, 4-[1-(4-Chlorophenyl)-1H-pyrrolo[2,3-c]pyridin-3-yl]-N-(piperidin-4-ylmethyl)piperidine-1-carboxamide]",< 100
7,"Clc1ccc(-n2nc(NCCN3CCOCC3)c3ccncc32)cc1 [Compound 44, 1-(4-Chlorophenyl)-N-[2-(morpholin-4-yl)ethyl]-1H-pyrazolo[3,4-c]pyridin-3-amine]",500 to 2500
8,"COCCN1CCN(C(=O)N2CCC(c3cn(-c4ccc(Cl)cc4)c4cnccc34)CC2)CC1 [Compound 18, 1-({4-[1-(4-Chlorophenyl)-1H-pyrrolo[2,3-c]pyridin-3-yl]piperidin-1-yl}carbonyl)-4-(2-methoxyethyl) piperazine]",< 100
9,"CN1CCN(C(=O)CC2COCCN2c2nn(-c3ccc(Cl)cc3)c3cnccc23)CC1 (stereo not shown) [Compound 55, 2-{4-[1-(4-Chlorophenyl)-1H-pyrazolo[3,4-c]pyridin-3-yl]morpholin-3-yl}-1-(4-methylpiperazin-1-yl)ethan-1-one]",< 100
